The source of these data is US6780414B2 (priority 1998, dated 2004).

The assay deals with T1, BFT (Bacteroides fragilis, UniProt P54355).
T1 sequence (P54355 26-405): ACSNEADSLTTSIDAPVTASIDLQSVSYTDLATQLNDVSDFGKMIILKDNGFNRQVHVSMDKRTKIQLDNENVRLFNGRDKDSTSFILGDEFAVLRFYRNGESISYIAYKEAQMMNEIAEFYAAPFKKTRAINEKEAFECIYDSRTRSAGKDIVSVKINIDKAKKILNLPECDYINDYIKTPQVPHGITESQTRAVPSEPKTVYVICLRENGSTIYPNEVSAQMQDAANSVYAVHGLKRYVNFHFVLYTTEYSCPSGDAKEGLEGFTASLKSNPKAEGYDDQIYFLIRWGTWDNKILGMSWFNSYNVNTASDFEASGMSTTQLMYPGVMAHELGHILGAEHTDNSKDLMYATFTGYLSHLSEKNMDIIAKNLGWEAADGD
The assay is classed as cell-based, Bacterioides fragilis.

Consider `NCCCCCN` [cadaverine, 1,5-diaminopentane], for which the “Effect of Cadaverine, enterotoxicity in Ussing chambers” value was “completely” and the “ΔIsc + cadaverine” value was 21.5.
